In ChEMBL document CHEMBL3822384, “2-(3-Methoxyphenyl)quinazoline Derivatives: A New Class of Direct Constitutive Androstane Receptor (CAR) Agonists” (J Med Chem, 2016):

Biological target: T1, Nuclear receptor subfamily 1 group I member 3 (Homo sapiens, UniProt Q14994)
T1 sequence (Q14994 whole entry): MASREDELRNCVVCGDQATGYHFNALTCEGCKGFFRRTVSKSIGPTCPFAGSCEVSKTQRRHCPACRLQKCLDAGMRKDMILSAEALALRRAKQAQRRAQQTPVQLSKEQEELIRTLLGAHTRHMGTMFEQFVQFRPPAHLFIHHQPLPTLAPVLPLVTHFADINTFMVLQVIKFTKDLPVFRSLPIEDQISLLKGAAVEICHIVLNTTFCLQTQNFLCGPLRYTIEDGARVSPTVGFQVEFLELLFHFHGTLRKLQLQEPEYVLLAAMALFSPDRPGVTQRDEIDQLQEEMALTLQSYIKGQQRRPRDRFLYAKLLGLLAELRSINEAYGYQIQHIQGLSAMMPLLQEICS
Test: Agonist activity at human CAR expressed in human HepG2 cells assessed as induction of CYP2B6 mRNA expression at 1 to 10 uM after 24 hrs by qRT-PCR method
Format: cell-based
Conditions: hepg2, 24 h; call rule not given here

## COc1cccc(-c2nc(OC)c3ccccc3n2)c1
  Activity: Active
